Reference: PubChem BioAssay AID504330 (The Scripps Research Institute Molecular Screening Center, 2011)
The source made the active and inactive calls.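 The calls were made as follows: active = EC50 at or below 10 µM; inactive = the rest.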

Target: Caspase-7 (Homo sapiens) (UniProt P55210)
Experiment: procaspase-7 activators, dose response, dual procaspase-3/-7 activator project, biochemical, absorbance, human (AID 504330)
Conditions: recombinant procaspase-7 D3A, Ac-DEVD-pNA absorbance 405 nm

Caspase-7 (Homo sapiens), sequence (P55210 whole entry D23A/D198A/D206A): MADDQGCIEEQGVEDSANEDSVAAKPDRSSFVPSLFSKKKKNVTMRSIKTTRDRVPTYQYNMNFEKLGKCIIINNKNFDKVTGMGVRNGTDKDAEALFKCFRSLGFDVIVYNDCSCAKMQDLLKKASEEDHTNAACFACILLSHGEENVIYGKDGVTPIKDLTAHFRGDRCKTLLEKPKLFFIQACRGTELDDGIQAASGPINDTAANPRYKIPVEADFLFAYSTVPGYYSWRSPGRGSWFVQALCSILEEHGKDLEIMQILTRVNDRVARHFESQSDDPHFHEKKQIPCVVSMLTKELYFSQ

EC50: > 85.3 µM (inactive)
Structure (SMILES): CCOc1ccc(N=CC2=C(O)CC(c3ccco3)CC2=O)cc1 (stereo unspecified)
